Legend:
[1] = test system: hyperuricemic gout subjects with moderate to severe renal impairment; assay: Example 1 study: eGFR using the MDRD formula; type: in vivo, human; conditions: for change in eGFR over time: prior use of ACEi; for change in eGFR levels over time: prior use of ARB; for change in mean eGFR levels: subjects with moderate renal impairment
Experimental: Following the Study Day 1 Visit, subjects returned to the clinic for study visits at Day 14, Months 1, 3, 6, 9 and for a final visit at Month 12/ET Visit. […] Gout flare assessments were collected at each visit. Estimated GFR by Modification of Diet in Renal Disease (MDRD) calculation was performed by the Central Laboratory at all visits. Blood pressure (clinic with standardized instruments) was measured throughout the study. Adverse events, electrocardiograms (ECGs), clinical laboratory tests, and vital signs were collected at each visit.
The secondary efficacy variables for this study included change from baseline to Month 12 in eGFR using the MDRD formula; and percentage of subjects with sUA<6.0 mg/dL at Month 12.
An ANCOVA analysis similar to the primary analysis was used for analysis of eGFR. Subgroup analyses were also summarized for eGFR as for the primary endpoint.

[2] = test system: hyperuricemic gout subjects with moderate to severe renal impairment; assay: Example 1 study: serum creatinine (sCr); type: in vivo, human; conditions: for mean sCr: no prior and/or current use ARB or ACEi; for changes in sCr: prior and/or current use of ACEi; for changes in sCr / changes in mean sCr levels: Months 6 and 12; for change in sCr over time compared with placebo: sCr 2.0 to <2.5 mg/dL at Baseline; for change in sCr over time compared to placebo: sUA of 9.0 to <10.0 mg/dL at Baseline
Experimental: Efficacy of febuxostat was assessed by measurement of serum creatinine (and calculation of eGFR), clinic systolic and diastolic BP, and sUA levels. Serum samples for the analysis of serum creatinine (and calculation of eGFR) were collected at the time points stipulated in Schedule of Study Procedures (Table 1.). The primary efficacy variable was the change from Baseline to Month 12 in sCr. Summary statistics were presented for Baseline, postbaseline, and change from Baseline by treatment group at each visit. The primary analysis was based on the analysis of covariance (ANCOVA) model for change from baseline to Month 12 for the primary efficacy variable. The model included treatment as a factor, and the baseline sCr and prior use of an ARB or an ACEi (subjects taking an ARB or an ACEi or not taking an ARB or an ACEi) as covariates.

## Cc1nc(-c2ccc(OCC(C)C)c(C#N)c2)sc1C(=O)O [Febuxostat, 2-[3-cyano-4-(2-methylpropoxy)phenyl]-4-methylthiazole-5-carboxylic acid]
[1]; 30 mg BID, Day 14
  eGFR using MDRD formula, Change from Baseline: −0.99 mL/min/1.73 m^2
  eGFR using MDRD formula, Mean (SD): 33.25 (8.042) mL/min/1.73 m^2
[1]; 30 mg BID, Month 1
  eGFR using MDRD formula, Change from Baseline: −1.48 mL/min/1.73 m^2
  eGFR using MDRD formula, Mean (SD): 32.99 (8.305) mL/min/1.73 m^2
[1]; 30 mg BID, Month 3
  eGFR using MDRD formula, Change from Baseline: −0.72 mL/min/1.73 m^2
  eGFR using MDRD formula, Mean (SD): 33.52 (9.005) mL/min/1.73 m^2
[1]; 30 mg BID, Month 6
  eGFR Change from Baseline, LS mean (SE): 0.03 (0.955) mL/min/1.73 m^2
  eGFR Change from Baseline, LS mean difference (SE) from placebo group: 1.74 (1.374) mL/min/1.73 m^2
  eGFR using MDRD formula, Change from Baseline: −0.06 mL/min/1.73 m^2
  eGFR using MDRD formula, Mean (SD): 34.18 (8.004) mL/min/1.73 m^2
[1]; 30 mg BID, Month 9
  eGFR using MDRD formula, Change from Baseline: −0.91 mL/min/1.73 m^2
  eGFR using MDRD formula, Mean (SD): 33.33 (9.468) mL/min/1.73 m^2
[1]; 30 mg BID, Month 12
  eGFR Change from Baseline, LS mean (SE): 0.33 (1.172) mL/min/1.73 m^2
  eGFR Change from Baseline, LS mean difference (SE) from placebo group: 2.38 (1.687) mL/min/1.73 m^2
  eGFR using MDRD formula, Change from Baseline: 0.32 mL/min/1.73 m^2
  eGFR using MDRD formula, Mean (SD): 34.56 (9.382) mL/min/1.73 m^2
  change in mean eGFR levels: small improvement
[1]; 30 mg BID, Month 12, listed as febuxostat
  eGFR Change from Baseline, LS mean (SE): 0.33 mL/min/1.73 m^2
[1]; 30 mg BID
  change in eGFR over time: slight improvements
  change in eGFR levels over time: modest improvements
[1]; 30 mg BID, sUA of 9.0 to <10.0 mg/dL at Baseline
  change in eGFR over time compared with placebo: small favorable trend
[1]; 30 mg BID, sUA≥10.0 mg/dL at Baseline
  change in eGFR over time compared with placebo: small trend was apparent
[1]; 30 mg BID, serum creatinine 2.0 to <2.5 mg/dL at Baseline
  change in eGFR over time compared with placebo: small favorable trend
[1]; 40/80 mg QD, Day 14
  eGFR using MDRD formula, Change from Baseline: −0.52 mL/min/1.73 m^2
  eGFR using MDRD formula, Mean (SD): 33.87 (10.259) mL/min/1.73 m^2
[1]; 40/80 mg QD, Month 1
  eGFR using MDRD formula, Change from Baseline: −0.29 mL/min/1.73 m^2
  eGFR using MDRD formula, Mean (SD): 33.91 (10.482) mL/min/1.73 m^2
[1]; 40/80 mg QD, Month 3
  eGFR using MDRD formula, Change from Baseline: 0.14 mL/min/1.73 m^2
  eGFR using MDRD formula, Mean (SD): 34.34 (10.474) mL/min/1.73 m^2
[1]; 40/80 mg QD, Month 6
  eGFR Change from Baseline, LS mean (SE): 0.04 (0.969) mL/min/1.73 m^2
  eGFR Change from Baseline, LS mean difference (SE) from placebo group: 1.75 (1.383) mL/min/1.73 m^2
  eGFR using MDRD formula, Change from Baseline: −0.03 mL/min/1.73 m^2
  eGFR using MDRD formula, Mean (SD): 34.18 (11.067) mL/min/1.73 m^2
[1]; 40/80 mg QD, Month 9
  eGFR using MDRD formula, Change from Baseline: 1.18 mL/min/1.73 m^2
  eGFR using MDRD formula, Mean (SD): 35.39 (10.930) mL/min/1.73 m^2
[1]; 40/80 mg QD, Month 12
  eGFR Change from Baseline, LS mean (SE): −0.86 (0.190) mL/min/1.73 m^2
  eGFR Change from Baseline, LS mean difference (SE) from placebo group: 1.19 (1.698) mL/min/1.73 m^2
  eGFR using MDRD formula, Change from Baseline: −0.82 mL/min/1.73 m^2
  eGFR using MDRD formula, Mean (SD): 33.38 (11.949) mL/min/1.73 m^2
[1]; 40/80 mg QD, Month 12, listed as febuxostat
  eGFR Change from Baseline, LS mean (SE): −0.086 mL/min/1.73 m^2
[1]; 40/80 mg QD
  change in eGFR over time: slight improvements
[1]; 40/80 mg QD, sUA of 9.0 to <10.0 mg/dL at Baseline
  change in eGFR over time compared with placebo: small favorable trend
[1]; 40/80 mg QD, serum creatinine 2.0 to <2.5 mg/dL at Baseline
  change in eGFR over time compared with placebo: small favorable trend
[1]; 40/80 mg
  change in eGFR levels over time: moderate to large decreases
[1]; 40/80 mg, Month 12
  change in mean eGFR levels: small decreases
[2]; 30 mg BID
  renal function preservation compared with febuxostat 40/80 mg QD: better renal function preservation
  mean sCr: increased
  changes in sCr: slight improvements
  change in sCr over time compared with placebo: small favorable trend
  change in sCr over time compared to placebo: small favorable trend
[2]; 30 mg BID, Day 14
  Serum Creatinine, Change from Baseline: 0.09 mg/dL
  Serum Creatinine, Mean: 2.18 mg/dL
[2]; 30 mg BID, Month 1
  Serum Creatinine, Change from Baseline: 0.13 mg/dL
  Serum Creatinine, Mean: 2.23 mg/dL
[2]; 30 mg BID, Month 3
  Serum Creatinine, Change from Baseline: 0.09 mg/dL
  Serum Creatinine, Mean: 2.18 mg/dL
[2]; 30 mg BID, Month 6
  Serum Creatinine, Change from Baseline: 0.03 mg/dL
  Serum Creatinine, Mean: 2.12 mg/dL
  Serum creatinine change from Baseline, LS mean: 0.04 mg/dL
  Serum creatinine change from Baseline, LS mean difference from placebo group: -0.11 mg/dL
[2]; 30 mg BID, Month 9
  Serum Creatinine, Change from Baseline: 0.11 mg/dL
  Serum Creatinine, Mean: 2.21 mg/dL
[2]; 30 mg BID, Month 12
  Serum Creatinine, Change from Baseline: 0.04 mg/dL
  Serum Creatinine, Mean: 2.13 mg/dL
  Serum creatinine change from Baseline, LS mean: 0.09 mg/dL
  Serum creatinine change from Baseline, LS mean difference from placebo group: -0.10 mg/dL
[2]; 30 mg BID, prior and/or current use of ARB
  changes in mean sCr levels: minimal changes or a slight improvement
[2]; 30 mg BID, subjects with moderate renal impairment
  changes in mean sCr levels: minimal changes
[2]; 40/80 mg QD, Day 14
  Serum Creatinine, Change from Baseline: 0.08 mg/dL
  Serum Creatinine, Mean: 2.30 mg/dL
[2]; 40/80 mg QD, Month 1
  Serum Creatinine, Change from Baseline: 0.05 mg/dL
  Serum Creatinine, Mean: 2.25 mg/dL
[2]; 40/80 mg QD, Month 3
  Serum Creatinine, Change from Baseline: 0.04 mg/dL
  Serum Creatinine, Mean: 2.24 mg/dL
[2]; 40/80 mg QD, Month 6
  Serum Creatinine, Change from Baseline: 0.06 mg/dL
  Serum Creatinine, Mean: 2.26 mg/dL
  Serum creatinine change from Baseline, LS mean: 0.07 mg/dL
  Serum creatinine change from Baseline, LS mean difference from placebo group: -0.08 mg/dL
[2]; 40/80 mg QD, Month 9
  Serum Creatinine, Change from Baseline: 0.01 mg/dL
  Serum Creatinine, Mean: 2.22 mg/dL
[2]; 40/80 mg QD, Month 12
  Serum Creatinine, Change from Baseline: 0.19 mg/dL
  Serum Creatinine, Mean: 2.40 mg/dL
  Serum creatinine change from Baseline, LS mean: 0.23 mg/dL
  Serum creatinine change from Baseline, LS mean difference from placebo group: 0.04 mg/dL
[2]; 40/80 mg QD
  mean sCr: increased
  changes in sCr: minimal changes
  change in sCr over time compared with placebo: small favorable trend
  change in sCr over time compared to placebo: small favorable trend
[2]; 40/80 mg, prior and/or current use of ARB
  changes in mean sCr levels: minimal changes or a slight improvement
[2]; 40/80 mg, subjects with moderate renal impairment
  changes in mean sCr levels: small increases
